In paper PMC6017090, “Design, Synthesis and Biological Evaluation of Novel N-Pyridyl-Hydrazone Derivatives as Potential Monoamine Oxidase (MAO) Inhibitors” (Molecules : A Journal of Synthetic Chemistry and Natural …, 2018):

Tests used:
human recombinant MAO-B = target: T1, human recombinant MAO-B (Homo sapiens, UniProt P27338); assay: MAO activity assay (fluorometric, kynuramine substrate), MAO-B; assay type: biochemical; conditions: 10^−3 M; ± S.D.
T1 construct: purchased Sigma-Aldrich
T1 sequence (P27338 1-520): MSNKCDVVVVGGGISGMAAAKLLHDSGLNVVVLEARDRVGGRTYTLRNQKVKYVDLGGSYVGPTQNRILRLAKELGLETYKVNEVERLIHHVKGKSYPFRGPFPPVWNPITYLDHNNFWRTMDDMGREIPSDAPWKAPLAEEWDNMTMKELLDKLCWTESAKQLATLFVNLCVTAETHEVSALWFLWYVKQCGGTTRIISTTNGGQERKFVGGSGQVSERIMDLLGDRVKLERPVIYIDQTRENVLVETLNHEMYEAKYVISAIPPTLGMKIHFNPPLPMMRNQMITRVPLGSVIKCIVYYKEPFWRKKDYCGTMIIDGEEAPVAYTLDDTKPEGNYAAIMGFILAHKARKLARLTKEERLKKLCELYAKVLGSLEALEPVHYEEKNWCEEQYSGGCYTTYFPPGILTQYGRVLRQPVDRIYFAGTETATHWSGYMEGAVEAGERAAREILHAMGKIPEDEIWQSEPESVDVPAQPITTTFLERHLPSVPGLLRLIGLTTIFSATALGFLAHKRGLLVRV
Procedure: (§1) The enzyme activity assay was performed in accordance with the procedure reported by Matsumoto et al. with slight modifications. All materials used in the enzymatic assays were purchased from Sigma-Aldrich Chemicals. All pipetting protocols in the assay were performed by the Biotek Precision robotic system (BioTek Instruments, Inc., Winooski, VT, USA). To prevent the effect of light MAO enzymes, the assay was performed in 96-well black plates. Phosphate buffer (0.1 M, pH = 7.4) was used for the preparation of 5 mg/mL stock solutions of the human recombinant MAO-A and MAO-B enzymes. The enzyme stock solutions were further diluted with an assay buffer to obtain final concentrations of 0.006 mg/mL MAO-A and 0.015 mg/mL MAO-B. Kynuramine was dissolved in sterilized distilled water to obtain a 25 mM stock solution and then diluted with the assay buffer to obtain final concentrations of 40 μM for the MAO-A enzyme and 20 μM for the MAO-B enzyme. […] The addition of the diluted compounds was followed by the addition of either the MAO-A or MAO-B enzymes (50 μL/well). […] Fluorescence was read from top by using BioTek-Synergy H1 multimode microplate reader at the excitation/emission wavelengths of 310 and 380 nm.
(§2) The IC50 values (Table 2) were calculated from the plots of enzyme activity against concentrations, and the regression analyses were computed in GraphPad Prism Version 6 (GraphPad Software, Inc., La Jolla, CA, USA).

MAO-A enzyme = target: T2, MAO-A enzyme (Homo sapiens, UniProt P21397); assay: MAO activity assay (fluorometric, kynuramine substrate), MAO-A; assay type: biochemical
T2 construct: purchased Sigma-Aldrich
T2 sequence (P21397 1-527): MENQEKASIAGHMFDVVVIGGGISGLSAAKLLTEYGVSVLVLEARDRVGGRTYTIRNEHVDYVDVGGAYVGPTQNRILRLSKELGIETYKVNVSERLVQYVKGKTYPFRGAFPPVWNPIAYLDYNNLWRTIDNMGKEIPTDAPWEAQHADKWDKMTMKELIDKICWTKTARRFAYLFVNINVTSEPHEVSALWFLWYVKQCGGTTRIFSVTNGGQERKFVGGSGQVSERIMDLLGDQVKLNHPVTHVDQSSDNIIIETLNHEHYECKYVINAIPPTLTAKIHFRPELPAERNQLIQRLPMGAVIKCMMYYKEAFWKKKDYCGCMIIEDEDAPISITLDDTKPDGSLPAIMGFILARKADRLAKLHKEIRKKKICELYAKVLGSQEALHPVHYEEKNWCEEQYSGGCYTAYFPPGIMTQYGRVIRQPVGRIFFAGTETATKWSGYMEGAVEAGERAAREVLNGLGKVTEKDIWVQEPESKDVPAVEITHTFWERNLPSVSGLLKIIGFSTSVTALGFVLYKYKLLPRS
Procedure: as §1, with “Phosphate buffer (0.1 M, pH = 7.4) was used for the preparation of 5 mg/mL stock solutions of the human recombinant MAO-A and MAO-B enzymes.” left out
as §2

[1] = system: NIH/3T3 mouse embryonic fibroblast cells
Procedure: The MTT assay was performed as previously described [21, 22, 23, 24, 25, 26].

- MAO-B Inhibition % (human recombinant MAO-B): 42.00 ± 1.21%
- IC50 (MAO-A enzyme): 9.52 µM
- MAO-A Inhibition % (MAO-A enzyme; 10^−3 M, ± S.D.): 72.07 ± 1.56%
- MAO-A Inhibition % (MAO-A enzyme; 10^−4 M, ± S.D.): 56.90 ± 1.50%
- MAO-A Inhibition % (MAO-A enzyme; 10^−5 M): 42.13 ± 1.22%
- MAO-A Inhibition % (MAO-A enzyme; 10^−6 M): 35.11 ± 1.18%
- MAO-A Inhibition % (MAO-A enzyme; 10^−7 M): 24.96 ± 0.83%
- MAO-A Inhibition % (MAO-A enzyme; 10^−8 M): 18.02 ± 0.77%
- MAO-A Inhibition % (MAO-A enzyme; 10^−9 M): 10.40 ± 0.29%
- IC50 [1]: > 1000 µM
SMILES: CCOc1ccc([N+](=O)[O-])c(NN=Cc2ccccn2)n1 [Compound 2n, 6-Ethoxy-3-nitro-2[(2-(pyridine-2-yl)methylene)hydrazinyl]pyridine]
